The source of these data is patent publication US9999859B2, “Immobilized multi-layer artificial membrane for permeability measurements (PAMPA)” (CORNING INCORPORATED, priority 2005, dated 2018).

Where two headings read alike, the source gives them in different places.

Series [1] in a line: PAMPA permeability with subject invention membrane. It counts as in vitro ADME. Particulars: for Papp at 5 h: PAMPA; for measured permeability with 10% methanol, 90% PBS as working buffer: 90% PBS versus PBS, FIG. 8. As to the method: FIGS. 5-9 present various data relating to the subject invention. […] Then the filter plate 34 was coupled with the receiver plate 42 and the assembly was incubated in a humidity chamber without agitation at room temperature (except for a data set in FIG. 9, where the assembly was incubated in a humidity chamber without agitation at 37° C.) for 5 hours. At the end of the incubation, the plates 34, 42 were separated and 150 μL solution from each well 36, 44 of both the filter plate 34 and the receiver plate 42 was transferred to UV-transparent plates. The final concentrations of compounds in both donor wells and acceptor wells were analyzed by UV-plate reader. […] Where: • C0=initial compound concentration in donor well (mM) • CD (t)=compound concentration in donor well at time t. (mM) • CA (t)=compound concentration in acceptor well at time t.

The conditions of series [2]: human oral absorption; cited from earlier work.
For series [3] the following is noted: cited from earlier work.
Where [4] appears, read: PBS pH 7.4, room temperature, no agitation, 5 hours, read-out: Pe Subject Invention Membrane Results.
Setting [5] is: prior art PAMPA membrane, PBS pH 7.4, room temperature, no agitation.

In the case of `CCCC(=O)Nc1ccc(OCC(O)CNC(C)C)c(C(C)=O)c1` (stereo not drawn) [acebutolol], in series [1] (setting [4]), the Papp at 5 h came out at 0.21 ×10⁻⁶ cm/s. Besides, in series [2], the “Human Absorption” value is 50%.

For `Nc1nc2c(ncn2COCCO)c(=O)[nH]1` [acyclovir], the Papp at 5 h in series [1] (setting [4]) was determined as 0.1 ×10⁻⁶ cm/s.

Consider `N=C(N)NC(=O)c1nc(Cl)c(N)nc1N` [amiloride], for which the Papp at 5 h in series [1] (setting [4]) worked out at 0.08 ×10⁻⁶ cm/s. In addition, in series [2], the “Human Absorption” value is 50%. Further, in series [3] (setting [5]), the “Pe Prior Art Results” value is given as 0.00 10^−6 cm/s.

For the compound `Cc1cc(=O)n(-c2ccccc2)n1C` [antipyrine], the “PAMPA permeability values found by the prior art” value (“PAMPA permeability values found” below) in series [3] (PAMPA) is “low”. Besides, the “Pe Prior Art Results” value in series [3] (setting [5]) is 0.74 10^−6 cm/s.

Take `Cn1c(=O)c2c(ncn2C)n(C)c1=O` [caffeine]: in series [3] (in words), the “PAMPA permeability values found” value is “low”.

Turning to `NC(=O)N1c2ccccc2C=Cc2ccccc21` [carbamazepine], in series [1] (setting [4]), the Papp at 5 h is 7.79 ×10⁻⁶ cm/s. The “Human Absorption” value in series [2] was 100%. Moreover, the “Pe Prior Art Results” value in series [3] (setting [5]) is recorded as 6.4 10^−6 cm/s.

Take `Clc1cccc(Cl)c1N=C1NCCN1` [clonidine]: in series [1] (setting [4]), the Papp at 5 h came out at 4.92 ×10⁻⁶ cm/s. The “Human Absorption” value in series [2] is reported as 100%. In addition, the “Pe Prior Art Results” value in series [3] (setting [5]) is reported as 1.5 10^−6 cm/s.

`O=C(O)Cc1ccccc1Nc1c(Cl)cccc1Cl` [diclofenac]: the Papp at 5 h in series [1] (setting [4]) is 6.3 ×10⁻⁶ cm/s.

Turning to `NC(N)=Nc1nc(CSCCC(N)=NS(N)(=O)=O)cs1` [famotidine], in series [1] (setting [4]), the Papp at 5 h was 0.04 ×10⁻⁶ cm/s. Also, the “Human Absorption” value in series [2] is 40%. In addition, the “Pe Prior Art Results” value in series [3] (setting [5]) is 0.06 10^−6 cm/s.

Consider `NS(=O)(=O)c1cc2c(cc1Cl)NCNS2(=O)=O` [hydrochlorothiazide], for which the Papp at 5 h in series [1] (setting [4]) turned out to be 0.09 ×10⁻⁶ cm/s. Also, in series [3] (setting [5]), the “Pe Prior Art Results” value is 0.02 10^−6 cm/s.

For `CC(C)Cc1ccc(C(C)C(=O)O)cc1` (stereo not drawn) [ibuprofen], the Papp at 5 h in series [1] (setting [4]) was 4.39 ×10⁻⁶ cm/s. The “Pe Prior Art Results” value in series [3] (setting [5]) is 2.4 10^−6 cm/s.

For `COc1ccc2c(c1)c(CC(=O)O)c(C)n2C(=O)c1ccc(Cl)cc1` [indomethacin], the Papp at 5 h in series [1] (setting [4]) was determined as 6.24 ×10⁻⁶ cm/s.

As for `CC(C(=O)O)c1cccc(C(=O)c2ccccc2)c1` (stereo not drawn) [ketoprofen], the Papp at 5 h in series [1] (setting [4]) was determined as 3.1 ×10⁻⁶ cm/s. Further, in series [3] (in words), the “PAMPA permeability values found” value was “low”.

For `COCCc1ccc(OCC(O)CNC(C)C)cc1` (stereo not drawn) [metoprolol], the Papp at 5 h in series [1] (setting [4]) worked out at 4.29 ×10⁻⁶ cm/s. For the same compound, in series [3] (in words), the “PAMPA permeability values found” value is “low”.

Take `Clc1ccc(COC(Cn2ccnc2)c2ccc(Cl)cc2Cl)c(Cl)c1` (stereo not drawn) [miconazole]: the “measured permeability with 10% methanol, 90% PBS as working buffer” value in series [1] is “can be measured”.

Turning to `CC(C)(C)NCC(O)COc1cccc2c1CC(O)C(O)C2` (stereo not drawn) [nadolol], the Papp at 5 h in series [1] (setting [4]) worked out at 0.16 ×10⁻⁶ cm/s. Further, the “Human Absorption” value in series [2] is listed as 30%. Besides, the “Pe Prior Art Results” value in series [3] (setting [5]) is 0.28 10^−6 cm/s.

With `O=C1NC(=O)C(c2ccccc2)(c2ccccc2)N1` [phenytoin], the Papp at 5 h in series [1] (setting [4]) stood at 5.73 ×10⁻⁶ cm/s. In addition, the “PAMPA permeability values found” value in series [3] (in words) is on record as “low”. For the same compound, the “Pe Prior Art Results” value in series [3] (setting [5]) was 0.38 10^−6 cm/s.

Turning to `CC(C)NCC(O)COc1cccc2[nH]ccc12` (stereo not drawn) [pindolol], the Papp at 5 h in series [1] (setting [4]) is 2.64 ×10⁻⁶ cm/s.

Take `CN1C(C(=O)Nc2ccccn2)=C(O)c2ccccc2S1(=O)=O` [piroxicam]: in series [1] (setting [4]), the Papp at 5 h was 4.02 ×10⁻⁶ cm/s. Moreover, in series [2], the “Human Absorption” value is 100%. Further, the “Pe Prior Art Results” value in series [3] (setting [5]) was 2.64 10^−6 cm/s.

`CNC(=C[N+](=O)[O-])NCCSCc1ccc(CN(C)C)o1` [ranitidine]: the “Pe Subject Invention Membrane Results” value in series [1] (PBS pH 7.4, room temperature, no agitation, 5 hours) was 0.45 10^−6 cm/s. Besides, in series [2], the “Human Absorption” value is 61%.

As for `O=C(O)c1cc(/N=N/c2ccc(S(=O)(=O)Nc3ccccn3)cc2)ccc1O` [sulphasalazine], the Papp at 5 h in series [1] (setting [4]) worked out at 0.16 ×10⁻⁶ cm/s. The “Human Absorption” value in series [2] is given as 13%. Also, in series [3] (setting [5]), the “Pe Prior Art Results” value was 0.00 10^−6 cm/s.

Take `CCN1CCCC1CNC(=O)c1cc(S(N)(=O)=O)ccc1OC` (stereo not drawn) [sulpiride]: the Papp at 5 h in series [1] (setting [4]) came out at 0.18 ×10⁻⁶ cm/s.

Consider `CC(C)(C)NCC(O)c1cc(O)cc(O)c1` (stereo not drawn) [terbutaline], for which the Papp at 5 h in series [1] (setting [4]) is 0.46 ×10⁻⁶ cm/s. In addition, the “Human Absorption” value in series [2] is 60%. The “Pe Prior Art Results” value in series [3] (setting [5]) was 0.05 10^−6 cm/s.

On to `CC(C)(C)c1ccc(C(O)CCCN2CCC(C(O)(c3ccccc3)c3ccccc3)CC2)cc1` (stereo not drawn) [terfenadine], for which, in series [1], the “measured permeability with 10% methanol, 90% PBS as working buffer” value was “can be measured”.

Turning to `Cn1c(=O)c2[nH]cnc2n(C)c1=O` [theophyline], in series [3] (PAMPA, pH 7.4), the “Pe Prior Art Results” value is 0.04 10^−6 cm/s.

Take `CC(C)(C)NC[C@H](O)COc1nsnc1N1CCOCC1` [timolol]: the Papp at 5 h in series [1] (setting [4]) was determined as 4.45 ×10⁻⁶ cm/s. Besides, the “PAMPA permeability values found” value in series [3] (in words) is given as “low”. For the same compound, in series [3] (setting [5]), the “Pe Prior Art Results” value is 0.61 10^−6 cm/s.

Take `CC(=O)CC(c1ccccc1)c1c(O)c2ccccc2oc1=O` (stereo not drawn) [warfarin]: the Papp at 5 h in series [1] (pH 7.4) is 5.28 ×10⁻⁶ cm/s.
